From PubChem BioAssay AID248 (DTP/NCI, 2004)
Inconclusive results and toxic doses are left out. Cut-off read from the data, not from the text of the source: active = T/C of 150% or more; inactive = T/C below 125%.

Tested on: L1210 leukemia ip in BDF1 mice, survival T/C
Assay: NCI In Vivo Anticancer Drug Screen. Data for tumor model L1210 Leukemia (intraperitoneal) in B6D2F1 (BDF1) mice
Conditions: endpoint: mean survival time, higher = longer survival
Outline: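 Tumor was transplanted into mice, which were then dosed with test compound or vehicle alone. Survival was recorded for each group, and the treated figure was expressed relative to the control figure.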

[1] = dose: 100.0 mg/kg/injection, schedule: Q04DX003 (ip), vehicle: Klucel (hydroxypropylcellulose) (HPC)
[2] = dose: 100.0 mg/kg/injection, schedule: Q01DX009 (ip), vehicle: saline with Tween-80
[3] = dose: 100.0 mg/kg/injection, schedule: Q04DX003 (ip), vehicle: saline with Tween-80
[4] = dose: 200.0 mg/kg/injection, schedule: Q01DX009 (ip), vehicle: saline with Tween-80
[5] = dose: 200.0 mg/kg/injection, schedule: Q04DX003 (ip), vehicle: saline with Tween-80
[6] = dose: 400.0 mg/kg/injection, schedule: Q01DX009 (ip), vehicle: saline with Tween-80
[7] = dose: 400.0 mg/kg/injection, schedule: Q04DX003 (ip), vehicle: saline with Tween-80
[8] = dose: 100.0 mg/kg/injection, schedule: Q01DX001 (ip), vehicle: Klucel (hydroxypropylcellulose) (HPC)
[9] = dose: 200.0 mg/kg/injection, schedule: Q01DX001 (ip), vehicle: Klucel (hydroxypropylcellulose) (HPC)
[10] = dose: 400.0 mg/kg/injection, schedule: Q01DX001 (ip), vehicle: Klucel (hydroxypropylcellulose) (HPC)
[11] = dose: 100.0 mg/kg/injection, schedule: Q04DX003 (ip), vehicle: acetone
[12] = dose: 200.0 mg/kg/injection, schedule: Q04DX003 (ip), vehicle: acetone
[13] = dose: 400.0 mg/kg/injection, schedule: Q04DX003 (ip), vehicle: acetone
[14] = dose: 75.0 mg/kg/injection, schedule: Q01DX009 (ip), vehicle: Klucel (hydroxypropylcellulose) (HPC)
[15] = dose: 150.0 mg/kg/injection, schedule: Q01DX009 (ip), vehicle: Klucel (hydroxypropylcellulose) (HPC)
[16] = dose: 300.0 mg/kg/injection, schedule: Q01DX009 (ip), vehicle: Klucel (hydroxypropylcellulose) (HPC)

Measured: T/C

O=C(CCN1CC1)Nc1ccc(Cl)c(Cl)c1
inactive: dose: 20.0 mg/kg/injection, schedule: Q04DX003 (ip), vehicle: Klucel (hydroxypropylcellulose) (HPC) 88 % of control | dose: 25.0 mg/kg/injection, schedule: Q01DX009 (ip), vehicle: Klucel (hydroxypropylcellulose) (HPC) 98 % of control | dose: 40.0 mg/kg/injection, schedule: Q04DX003 (ip), vehicle: Klucel (hydroxypropylcellulose) (HPC) 98 % of control | dose: 50.0 mg/kg/injection, schedule: Q01DX009 (ip), vehicle: Klucel (hydroxypropylcellulose) (HPC) 101 % of control | dose: 80.0 mg/kg/injection, schedule: Q04DX003 (ip), vehicle: Klucel (hydroxypropylcellulose) (HPC) 92 % of control | [1] 86 % of control

CN(C)/C=C/c1nnc([N+](=O)[O-])s1
inactive: dose: 62.0 mg/kg/injection, schedule: Q04DX003 (ip), vehicle: Klucel (hydroxypropylcellulose) (HPC) 100 % of control | dose: 123.0 mg/kg/injection, schedule: Q04DX003 (ip), vehicle: Klucel (hydroxypropylcellulose) (HPC) 98 % of control | dose: 256.0 mg/kg/injection, schedule: Q04DX003 (ip), vehicle: Klucel (hydroxypropylcellulose) (HPC) 98 % of control | dose: 512.0 mg/kg/injection, schedule: Q04DX003 (ip), vehicle: Klucel (hydroxypropylcellulose) (HPC) 100 % of control

CCn1c2ccccc2c2cc(N=Cc3ccc(N(CCCl)CCCl)cc3C)ccc21
inactive: dose: 50.0 mg/kg/injection, schedule: Q01DX001 (ip), vehicle: carboxymethylcellulose (CMC) 103 % of control | dose: 100.0 mg/kg/injection, schedule: Q01DX001 (ip), vehicle: carboxymethylcellulose (CMC) 103 % of control | dose: 200.0 mg/kg/injection, schedule: Q01DX001 (ip), vehicle: carboxymethylcellulose (CMC) 117 % of control | dose: 400.0 mg/kg/injection, schedule: Q01DX001 (ip), vehicle: carboxymethylcellulose (CMC) 100 % of control

N#CCCC(C#N)(CCC#N)c1ccc([N+](=O)[O-])cc1
inactive: [2] 102 % of control | [3] 98 % of control | [4] 107 % of control | [5] 98 % of control | [6] 98 % of control | [7] 98 % of control

CCC(NC(=O)OCc1ccccc1)C(=O)O (stereo not given)
inactive: [3] 98 % of control | [5] 93 % of control | [7] 97 % of control

O=C(CI)Nc1cc(C(F)(F)F)ccc1Cl
inactive: dose: 25.0 mg/kg/injection, schedule: Q04DX003 (ip), vehicle: Klucel (hydroxypropylcellulose) (HPC) 102 % of control | dose: 50.0 mg/kg/injection, schedule: Q04DX003 (ip), vehicle: Klucel (hydroxypropylcellulose) (HPC) 94 % of control

C=CC1CC2C=CC1C2 (stereo not given)
inactive: dose: 100.0 mg/kg/injection, schedule: Q04DX003 (ip), vehicle: saline 100 % of control | dose: 200.0 mg/kg/injection, schedule: Q04DX003 (ip), vehicle: saline 103 % of control | dose: 400.0 mg/kg/injection, schedule: Q04DX003 (ip), vehicle: saline 106 % of control

CSc1nccc(NN=C2CCCCC2)n1
inactive: [8] 98 % of control | dose: 100.0 mg/kg/injection, schedule: Q01DX009 (ip), vehicle: Klucel (hydroxypropylcellulose) (HPC) 96 % of control | [9] 94 % of control | dose: 200.0 mg/kg/injection, schedule: Q01DX009 (ip), vehicle: Klucel (hydroxypropylcellulose) (HPC) 98 % of control | [10] 91 % of control

CCCCC(=O)N(CC)CC
inactive: dose: 100.0 mg/kg/injection, schedule: Q01DX001 (ip), vehicle: acetone 97 % of control | dose: 200.0 mg/kg/injection, schedule: Q01DX001 (ip), vehicle: acetone 97 % of control

O=C(O)c1cccc(F)n1
inactive: [3] 91 % of control | [5] 89 % of control

CCCCOC(=O)CC(=O)OC
inactive: dose: 100.0 mg/kg/injection, schedule: Q01DX009 (ip), vehicle: acetone 93 % of control | [11] 100 % of control | dose: 200.0 mg/kg/injection, schedule: Q01DX009 (ip), vehicle: acetone 90 % of control | [12] 103 % of control | dose: 400.0 mg/kg/injection, schedule: Q01DX009 (ip), vehicle: acetone 93 % of control | [13] 107 % of control

Cc1cccc2sc(=S)[nH]c12
inactive: dose: 37.5 mg/kg/injection, schedule: Q04DX003 (ip), vehicle: Klucel (hydroxypropylcellulose) (HPC) 107 % of control | [14] 92 % of control | dose: 75.0 mg/kg/injection, schedule: Q04DX003 (ip), vehicle: Klucel (hydroxypropylcellulose) (HPC) 101 % of control | [15] 92 % of control | dose: 150.0 mg/kg/injection, schedule: Q04DX003 (ip), vehicle: Klucel (hydroxypropylcellulose) (HPC) 93 % of control | [16] 93 % of control | dose: 300.0 mg/kg/injection, schedule: Q04DX003 (ip), vehicle: Klucel (hydroxypropylcellulose) (HPC) 95 % of control

O=C(O)c1c(F)cccc1F
inactive: dose: 25.0 mg/kg/injection, schedule: Q04DX003 (ip), vehicle: saline with Tween-80 91 % of control | dose: 50.0 mg/kg/injection, schedule: Q04DX003 (ip), vehicle: saline with Tween-80 91 % of control | [1] 95 % of control | [3] 88 % of control | dose: 400.0 mg/kg/injection, schedule: Q04DX003 (ip), vehicle: Klucel (hydroxypropylcellulose) (HPC) 88 % of control

O=C1/C(=C/c2ccccn2)COc2ccccc21
inactive: dose: 100.0 mg/kg/injection, schedule: Q04DX003 (ip), vehicle: carboxymethylcellulose (CMC) 93 % of control | dose: 200.0 mg/kg/injection, schedule: Q04DX003 (ip), vehicle: carboxymethylcellulose (CMC) 95 % of control | dose: 400.0 mg/kg/injection, schedule: Q04DX003 (ip), vehicle: carboxymethylcellulose (CMC) 103 % of control

CCCCNC(=O)C1CCC(CC2CCCCC2)CC1 (stereo not given)
inactive: dose: 100.0 mg/kg/injection, schedule: Q04DX002 (ip), vehicle: saline with Tween-80 90 % of control | dose: 200.0 mg/kg/injection, schedule: Q04DX002 (ip), vehicle: saline with Tween-80 105 % of control | dose: 400.0 mg/kg/injection, schedule: Q04DX002 (ip), vehicle: saline with Tween-80 94 % of control

COc1ccccc1C(=O)NS(=O)(=O)c1ccc(Cl)cc1
inactive: [11] 113 % of control | [12] 101 % of control | [13] 96 % of control

CCC(=O)O[C@H]1CC[C@H]2[C@@H]3C[C@H](F)C4=CC(=O)CC[C@]4(C)[C@H]3CC[C@]12C
inactive: [2] 102 % of control | [4] 93 % of control | [6] 91 % of control

COC(=O)C(Cc1ccccc1)NC(=O)C(COC1OC(COC(C)=O)C(OC(C)=O)C(OC(C)=O)C1NC(C)=O)NC(=O)OCc1ccccc1 (stereo not given)
inactive: dose: 50.0 mg/kg/injection, schedule: Q04DX002 (ip), vehicle: Klucel (hydroxypropylcellulose) (HPC) 101 % of control | dose: 100.0 mg/kg/injection, schedule: Q04DX002 (ip), vehicle: Klucel (hydroxypropylcellulose) (HPC) 104 % of control | dose: 200.0 mg/kg/injection, schedule: Q04DX002 (ip), vehicle: Klucel (hydroxypropylcellulose) (HPC) 101 % of control

O=C(O)CCc1c(O)cc(Br)c(O)c1Br
inactive: [8] 90 % of control | [9] 93 % of control | [10] 96 % of control

COc1ccc(N(C)C(C)=S)cc1
inactive: dose: 100.0 mg/kg/injection, schedule: Q04DX003 (ip), vehicle: gum acacia 96 % of control | dose: 200.0 mg/kg/injection, schedule: Q04DX003 (ip), vehicle: gum acacia 103 % of control

CC(C)CCCCCCCCOC(=O)c1ccccc1C(=O)OCCCCCCCCC(C)C
inactive: dose: 100.0 mg/kg/injection, schedule: Q01DX001 (ip), vehicle: saline 98 % of control | dose: 200.0 mg/kg/injection, schedule: Q01DX001 (ip), vehicle: saline 103 % of control | dose: 400.0 mg/kg/injection, schedule: Q01DX001 (ip), vehicle: saline 103 % of control

CC(C)C(=O)[O][Sn]([CH2]c1ccccc1)([CH2]c1ccccc1)[CH2]c1ccccc1
inactive: [3] 88 % of control

BrCCCc1ccccc1
inactive: dose: 75.0 mg/kg/injection, schedule: Q01DX001 (ip), vehicle: saline 95 % of control | dose: 150.0 mg/kg/injection, schedule: Q01DX001 (ip), vehicle: saline 97 % of control

COC1C(OC(N)=O)C(O)C(Oc2ccc3c(O)c(N)c(=O)oc3c2C)OC1(C)C (stereo not given)
inactive: dose: 37.5 mg/kg/injection, schedule: Q01DX009 (ip), vehicle: Klucel (hydroxypropylcellulose) (HPC) 98 % of control | [14] 101 % of control | [15] 104 % of control | [16] 101 % of control
